Assay: xn = mol fraction of the nth substance listed
Details: Liquid; for viscosity: 100.5 kPa; for mass density: 101 kPa

CCCC(=O)OCCC(C)C [3-methylbutyl butanoate] + CCO
Details | mass density, 288.15 K [kg/m3] | mass density, 298.15 K [kg/m3] | mass density, 308.15 K [kg/m3] | mass density, 318.15 K [kg/m3] | viscosity, 288.15 K [mPa·s] | viscosity, 298.15 K [mPa·s] | viscosity, 308.15 K [mPa·s] | viscosity, 318.15 K [mPa·s]
x1 = 0.05 | 804.06 | 795.35 | 786.52 | 777.54 | 1.27 | 1.057 | 0.887 | 0.744
x1 = 0.1 | 812.38 | 803.57 | 794.63 | 785.54 | 1.231 | 1.025 | 0.858 | 0.723
x1 = 0.15 | 819.51 | 810.61 | 801.58 | 792.4 | 1.201 | 1.004 | 0.844 | 0.715
x1 = 0.2 | 825.58 | 816.61 | 807.52 | 798.28 | 1.181 | 0.993 | 0.838 | 0.711
x1 = 0.25 | 830.83 | 821.8 | 812.66 | 803.38 | 1.171 | 0.985 | 0.834 | 0.71
x1 = 0.3 | 835.41 | 826.34 | 817.17 | 807.86 | 1.167 | 0.98 | 0.832 | 0.71
x1 = 0.35 | 839.37 | 830.31 | 821.11 | 811.78 | 1.168 | 0.98 | 0.833 | 0.714
x1 = 0.4 | 842.96 | 833.85 | 824.64 | 815.3 | 1.17 | 0.984 | 0.835 | 0.717
x1 = 0.45 | 846.14 | 837.02 | 827.79 | 818.44 | 1.176 | 0.989 | 0.84 | 0.723
x1 = 0.5 | 849.03 | 839.9 | 830.66 | 821.32 | 1.183 | 0.994 | 0.846 | 0.729
x1 = 0.55 | 851.61 | 842.46 | 833.24 | 823.9 | 1.191 | 1.001 | 0.853 | 0.735
x1 = 0.6 | 854.01 | 844.86 | 835.64 | 826.33 | 1.202 | 1.01 | 0.862 | 0.743
x1 = 0.65 | 856.19 | 847.05 | 837.84 | 828.54 | 1.213 | 1.021 | 0.872 | 0.751
x1 = 0.7 | 858.18 | 849.04 | 839.85 | 830.57 | 1.224 | 1.031 | 0.882 | 0.76
x1 = 0.75 | 860.04 | 850.92 | 841.74 | 832.49 | 1.237 | 1.043 | 0.891 | 0.77
x1 = 0.8 | 861.76 | 852.65 | 843.5 | 834.28 | 1.253 | 1.056 | 0.903 | 0.781
x1 = 0.85 | 863.35 | 854.28 | 845.15 | 835.96 | 1.268 | 1.071 | 0.915 | 0.792
x1 = 0.9 | 864.86 | 855.81 | 846.71 | 837.56 | 1.284 | 1.086 | 0.929 | 0.806
x1 = 0.95 | 866.3 | 857.28 | 848.22 | 839.12 | 1.302 | 1.099 | 0.941 | 0.817
x1 = 1 | 867.72 | 858.69 | 849.62 | 840.55 | 1.317 | 1.111 | 0.952 | 0.827

Reference: the NIST ThermoML archive (doi:10.1021/je050389b)
